# Source: PubChem BioAssay AID2060909 (Molecular Pharmacology Branch, DTP, NCI, 2025)
# Test system: 362531-283-R-J2-PDC complex spheroid viability
# Test: Anticancer human tumor 362531-283-R-J2-PDC patient-derived colon adenocarcinoma cell line growth inhibition [RAS]
# Details: for IC50: curve of first compound; for viability, T/C: stronger effect = lower value
# Outline: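 Tumour cells grown as complex spheroids with HUVEC endothelial cells and mesenchymal stem cells, treated with RAS pathway inhibitor combinations. Each agent spans half-log steps from near clinical Cmax, or 10 microM where Cmax is unknown.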
# [1] = second compound 0.000949 µM, first compound 0.0316 µM
# [2] = second compound 0.000949 µM, first compound 0.1 µM
# [3] = second compound 0.000949 µM, first compound 0.316 µM
# [4] = second compound 0.000949 µM, first compound 1 µM
# [5] = second compound 0.000949 µM, first compound 3.16 µM
# [6] = second compound 0.000949 µM, first compound 10 µM
# [7] = second compound 0.003 µM, first compound 0.0316 µM
# [8] = second compound 0.003 µM, first compound 0.1 µM
# [9] = second compound 0.003 µM, first compound 0.316 µM
# [10] = second compound 0.003 µM, first compound 1 µM
# [11] = second compound 0.003 µM, first compound 3.16 µM
# [12] = second compound 0.003 µM, first compound 10 µM
# [13] = second compound 0.00949 µM, first compound 0.0316 µM
# [14] = second compound 0.00949 µM, first compound 0.1 µM
# [15] = second compound 0.00949 µM, first compound 0.316 µM
# [16] = second compound 0.00949 µM, first compound 1 µM
# [17] = second compound 0.00949 µM, first compound 3.16 µM
# [18] = second compound 0.00949 µM, first compound 10 µM
# [19] = second compound 0.03 µM, first compound 0.0316 µM
# [20] = second compound 0.03 µM, first compound 0.1 µM
# [21] = second compound 0.03 µM, first compound 0.316 µM
# [22] = second compound 0.03 µM, first compound 1 µM
# [23] = second compound 0.03 µM, first compound 3.16 µM
# [24] = second compound 0.03 µM, first compound 10 µM
# [25] = second compound 0.0949 µM, first compound 0.0316 µM
# [26] = second compound 0.0949 µM, first compound 0.1 µM
# [27] = second compound 0.0949 µM, first compound 0.316 µM
# [28] = second compound 0.0949 µM, first compound 1 µM
# [29] = second compound 0.0949 µM, first compound 3.16 µM
# [30] = second compound 0.0949 µM, first compound 10 µM
# [31] = second compound 0.3 µM, first compound 0.0316 µM
# [32] = second compound 0.3 µM, first compound 0.1 µM
# [33] = second compound 0.3 µM, first compound 0.316 µM
# [34] = second compound 0.3 µM, first compound 1 µM
# [35] = second compound 0.3 µM, first compound 3.16 µM
# [36] = second compound 0.3 µM, first compound 10 µM
# 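Also: spheroids exposed to the agents for 7 days before readout.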
# 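For viability, T/C in this document: luminescence viability as percent of DMSO vehicle control wells.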
smiles,measurement,setting,value
CC1(O)CCCC1n1c(=O)c(C(F)F)cc2cnc(NC3CCN(S(C)(=O)=O)CC3)nc21 (stereo unspecified) + CCn1c(-c2cc(N3CCN(C)CC3)cnc2C(C)OC)c2c3cc(ccc31)-c1csc(n1)CC(NC(=O)C1CC1C)C(=O)N1CCCC(N1)C(=O)OCC(C)(C)C2,IC50,second compound 0.000949 µM,5.44 µM
same,IC50,second compound 0.003 µM,6.11 µM
same,IC50,second compound 0.00949 µM,8.98 µM
same,IC50,second compound 0.03 µM,5.9 µM
same,IC50,second compound 0.0949 µM,> 10 µM
same,IC50,second compound 0.3 µM,< 0.0316 µM
same,"viability, T/C",[1],97.7%
same,"viability, T/C",[2],97.5%
same,"viability, T/C",[3],98%
same,"viability, T/C",[4],79.5%
same,"viability, T/C",[5],57.6%
same,"viability, T/C",[6],42.2%
same,"viability, T/C",[7],109%
same,"viability, T/C",[8],112%
same,"viability, T/C",[9],97.4%
same,"viability, T/C",[10],76.9%
same,"viability, T/C",[11],61.5%
same,"viability, T/C",[12],42.4%
same,"viability, T/C",[13],94.6%
same,"viability, T/C",[14],111%
same,"viability, T/C",[15],108%
same,"viability, T/C",[16],83.5%
same,"viability, T/C",[17],65.5%
same,"viability, T/C",[18],47.5%
same,"viability, T/C",[19],99.2%
same,"viability, T/C",[20],99.1%
same,"viability, T/C",[21],89.4%
same,"viability, T/C",[22],87%
same,"viability, T/C",[23],69.2%
same,"viability, T/C",[24],33.9%
same,"viability, T/C",[25],80.7%
same,"viability, T/C",[26],79.2%
same,"viability, T/C",[27],78.6%
same,"viability, T/C",[28],68.2%
same,"viability, T/C",[29],56.4%
same,"viability, T/C",[30],61%
same,"viability, T/C",[31],37.4%
same,"viability, T/C",[32],50.2%
same,"viability, T/C",[33],37.7%
same,"viability, T/C",[34],55.8%
same,"viability, T/C",[35],45.9%
same,"viability, T/C",[36],7.05%
CCN1CCN(Cc2ccc(Nc3ncc(F)c(-c4cc(F)c5nc(C)n(C(C)C)c5c4)n3)nc2)CC1 + CCn1c(-c2cc(N3CCN(C)CC3)cnc2C(C)OC)c2c3cc(ccc31)-c1csc(n1)CC(NC(=O)C1CC1C)C(=O)N1CCCC(N1)C(=O)OCC(C)(C)C2,IC50,second compound 0.000949 µM,0.83 µM
same,IC50,second compound 0.003 µM,0.714 µM
same,IC50,second compound 0.00949 µM,0.471 µM
same,IC50,second compound 0.03 µM,0.308 µM
same,IC50,second compound 0.0949 µM,0.112 µM
same,IC50,second compound 0.3 µM,< 0.00316 µM
same,"viability, T/C","second compound 0.000949 µM, first compound 0.00316 µM",95.6%
same,"viability, T/C","second compound 0.000949 µM, first compound 0.01 µM",114%
same,"viability, T/C",[1],99.2%
same,"viability, T/C",[2],90.4%
same,"viability, T/C",[3],69.9%
same,"viability, T/C",[4],46.1%
same,"viability, T/C","second compound 0.003 µM, first compound 0.00316 µM",106%
same,"viability, T/C","second compound 0.003 µM, first compound 0.01 µM",110%
same,"viability, T/C",[7],96.4%
same,"viability, T/C",[8],87.8%
same,"viability, T/C",[9],66.6%
same,"viability, T/C",[10],43.1%
same,"viability, T/C","second compound 0.00949 µM, first compound 0.00316 µM",102%
same,"viability, T/C","second compound 0.00949 µM, first compound 0.01 µM",112%
same,"viability, T/C",[13],105%
same,"viability, T/C",[14],100%
same,"viability, T/C",[15],61.4%
same,"viability, T/C",[16],28.4%
same,"viability, T/C","second compound 0.03 µM, first compound 0.00316 µM",102%
same,"viability, T/C","second compound 0.03 µM, first compound 0.01 µM",96.8%
same,"viability, T/C",[19],93.2%
same,"viability, T/C",[20],73.5%
same,"viability, T/C",[21],50.1%
same,"viability, T/C",[22],15.2%
same,"viability, T/C","second compound 0.0949 µM, first compound 0.00316 µM",86.9%
same,"viability, T/C","second compound 0.0949 µM, first compound 0.01 µM",81%
same,"viability, T/C",[25],81.7%
same,"viability, T/C",[26],54.2%
same,"viability, T/C",[27],10.9%
same,"viability, T/C",[28],13.2%
same,"viability, T/C","second compound 0.3 µM, first compound 0.00316 µM",48.4%
same,"viability, T/C","second compound 0.3 µM, first compound 0.01 µM",46.8%
same,"viability, T/C",[31],40%
same,"viability, T/C",[32],13.3%
same,"viability, T/C",[33],6.94%
same,"viability, T/C",[34],11.1%
C[C@@H](NC(=O)c1ncnc(N)c1Cl)c1ncc(C(=O)Nc2cc(C(F)(F)F)c(Cl)cn2)s1 + CCn1c(-c2cc(N3CCN(C)CC3)cnc2C(C)OC)c2c3cc(ccc31)-c1csc(n1)CC(NC(=O)C1CC1C)C(=O)N1CCCC(N1)C(=O)OCC(C)(C)C2,IC50,second compound 0.000949 µM,> 10 µM
same,IC50,second compound 0.003 µM,> 10 µM
same,IC50,second compound 0.00949 µM,> 10 µM
same,IC50,second compound 0.03 µM,> 10 µM
same,IC50,second compound 0.0949 µM,> 10 µM
same,IC50,second compound 0.3 µM,3.74 µM
same,"viability, T/C",[1],107%
same,"viability, T/C",[2],110%
same,"viability, T/C",[3],94.3%
same,"viability, T/C",[4],103%
same,"viability, T/C",[5],96.1%
same,"viability, T/C",[6],78.5%
same,"viability, T/C",[7],106%
same,"viability, T/C",[8],104%
same,"viability, T/C",[9],93.3%
same,"viability, T/C",[10],94.3%
same,"viability, T/C",[11],85.6%
same,"viability, T/C",[12],69.6%
same,"viability, T/C",[13],94%
same,"viability, T/C",[14],100%
same,"viability, T/C",[15],95.9%
same,"viability, T/C",[16],96.9%
same,"viability, T/C",[17],86.3%
same,"viability, T/C",[18],66%
same,"viability, T/C",[19],107%
same,"viability, T/C",[20],92.6%
same,"viability, T/C",[21],91.7%
same,"viability, T/C",[22],92%
same,"viability, T/C",[23],78%
same,"viability, T/C",[24],62.1%
same,"viability, T/C",[25],79.3%
same,"viability, T/C",[26],87%
same,"viability, T/C",[27],78.7%
same,"viability, T/C",[28],73.7%
same,"viability, T/C",[29],76.2%
same,"viability, T/C",[30],62.5%
same,"viability, T/C",[31],56.6%
same,"viability, T/C",[32],56.2%
same,"viability, T/C",[33],58.5%
same,"viability, T/C",[34],59.9%
same,"viability, T/C",[35],72%
same,"viability, T/C",[36],26.3%
